Series [1] can be described thus: Selectivity index, ratio of IC50 for cytotoxicity against human HEK293 cells to IC50 for antiplasmodial activity against chloroquine-resistant Plasmodium falciparum Dd2 ring stage. The series is classed as toxicity, cell-based. Conditions: read-out: Ratio IC50.
The test system of series [2] is HEK293. Description: Cytotoxicity against human HEK293 cells assessed as reduction in cell viability after 72 hrs by resazurin dye based assay. Conditions: HEK293, 72 h.
For series [3], the system named is Plasmodium falciparum. As to the kind of experiment: Antiplasmodial activity against chloroquine-resistant Plasmodium falciparum Dd2 ring stage incubated for 72 hrs by DAPI-staining based imaging analysis. The series is classed as functional, organism-based. Conditions: Dd2, 72 h.
Series [4] has as its system Plasmodium falciparum. As to the kind of experiment: Antiplasmodial activity against chloroquine-sensitive Plasmodium falciparum 3D7 ring stage incubated for 72 hrs by DAPI-staining based imaging analysis. The series is classed as functional, organism-based. The note with it: 3D7, 72 h.
Series [5] can be described thus: Selectivity index, ratio of IC50 for cytotoxicity against human HEK293 cells to IC50 for antiplasmodial activity against chloroquine-sensitive Plasmodium falciparum 3D7 ring stage. Conditions: read-out: Ratio IC50. The series is classed as toxicity, cell-based.
In series [6] the test system is HEK293. As to the kind of experiment: Cytotoxicity against human HEK293 cells assessed as reduction in cell viability at 40 uM after 72 hrs by resazurin dye based assay. The note with it: hek293, 72 h.
Series [7] relates to HEK293. As to the kind of experiment: Cytotoxicity against human HEK293 cells assessed as reduction in cell viability at 4 uM after 72 hrs by resazurin dye based assay relative to control. Conditions: hek293, 72 h. A general note: Alamar Blue is a resazurin reagent that responds to reducing activity.
The subject of series [8] is HEK293. Description: Cytotoxicity against human HEK293 cells assessed as reduction in cell viability at 0.1 uM after 72 hrs by resazurin dye based assay. The note with it: hek293, 72 h.
Series [9] deals with Plasmodium falciparum. As to the kind of experiment: Antiplasmodial activity against chloroquine-resistant Plasmodium falciparum Dd2 ring stage at 40 uM incubated for 72 hrs by DAPI-staining based imaging analysis. The series is classed as functional, organism-based.
Series [10] concerns Plasmodium falciparum. Description: Antiplasmodial activity against chloroquine-sensitive Plasmodium falciparum 3D7 ring stage at 40 uM incubated for 72 hrs by DAPI-staining based imaging analysis. The series is classed as functional, organism-based.

We go through 9 compounds from ChEMBL document CHEMBL4699594, “Antiplasmodial Alkaloids from the Australian Bryozoan Amathia lamourouxi” (J Nat Prod, 2020).

pIC50: −log10 of the molar value. Active and inactive are the calls of the source. The calls are words filed in the database; no cut-off is given here.

In general, pIC50 refers to the negative decadic logarithm of the IC50, by convention in mol/L.

As for `CN[C@@H](CCN(C)CCc1cc(OC)c(Br)cc1Br)C(=O)N(C)CCCN(C)CCc1cc(OC)c(Br)cc1Br`, the results for the selectivity ratio in [1] and in [5] were 13 and 20, respectively. Besides, the pIC50 is 4.96 in the series on HEK293 [2], 6.07 in the series with Plasmodium falciparum [3] and 6.24 with Plasmodium falciparum [4].

As for `CN[C@@H](CCN(C)CCc1cc(OC)c(Br)cc1Br)C(=O)NCCCN(C)CCc1cc(OC)c(Br)cc1Br`, in the series on HEK293 [6], the Activity result is “Non-Toxic”. The selectivity ratio in series [1] was determined as 21; in series [5], 25. Besides, the pIC50 with Plasmodium falciparum [3] was 5.72; with Plasmodium falciparum [4] it was 5.80.

Take `COc1cc(CCN(C)CCCN(C)C)c(Br)cc1Br`: the pIC50 was 4.77 in the series on HEK293 [2] and 5.77 with Plasmodium falciparum [4]. Moreover, the selectivity ratio in series [5] amounted to 10.

Turning to `CCN(CC)CCCC(C)Nc1ccnc2cc(Cl)ccc12` (stereo not drawn) [CHLOROQUINE], the Activity with HEK293 [7] worked out at 67%.

As to `COc1ccc(C[C@H](N)C(=O)N[C@H]2[C@@H](O)[C@H](n3cnc4c(N(C)C)ncnc43)O[C@@H]2CO)cc1` [PUROMYCIN], the selectivity ratio was determined as 585 in [1] and 353 in series [5]. The pIC50 in the series on HEK293 [2] is 6.09; in the series with Plasmodium falciparum [3], 7.17.

On to `COc1cc(CCN(C)CCCN(C)C(=O)[C@H](CCN(C)CCc2cc(OC)c(Br)cc2Br)N(C)C)c(Br)cc1Br`, for which the Activity result with HEK293 [6] is listed as “Non-Toxic”. Also, the selectivity ratio in [1] is 53; in series [5] it was 66. For the same compound, the pIC50 in the series with Plasmodium falciparum [3] was 6.12; in the series with Plasmodium falciparum [4], 6.21.

For `C[C@H]1[C@@H](O)O[C@@H]2O[C@@]3(C)CC[C@H]4[C@H](C)CC[C@@H]1[C@@]24OO3` [ARTENIMOL], the selectivity ratio in series [1] came out at 57; in series [5], 62. This compound had a pIC50 in the series on Plasmodium falciparum [4] of 8.70. Besides, the Activity result with HEK293 [8] is reported as “Non-Toxic”.

With `CNCCc1cc(OC)c(Br)cc1Br.O=C(O)C(F)(F)F`, the Activity entry in the series on HEK293 [6] is given as “Non-Toxic”. Also, the pIC50 with Plasmodium falciparum [4] was 4.96. Also, the selectivity ratio in [5] is 4.

Consider `Cn1c(Br)c(C=O)c2cc(Br)ccc21`, for which the result in the series with Plasmodium falciparum [9] and in the series with Plasmodium falciparum [10] was inactive. Besides, in the series with HEK293 [6], the Activity entry is reported as “Non-Toxic”.
